Target: T1, CK1α (Homo sapiens, UniProt P48729+Q96SW2)
T1 construct: expressed in transfected cells
Assay: CK1α ePL degradation assay in MDS-L cells
Assay type: cell-based
Details: MDS-L cells expressing ePL-tagged CK1α; for DC50: concentration giving 50% CK1α degradation vs DMSO control; for Y: lowest measured CK1α level normalized to DMSO control
Summary of the method: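 MDS-L cells treated with compound in a 10-point, 3-fold series from 10 μM to 0.0005 μM at 37° C, 5% CO2 for the indicated times; CK1α measured by InCELL Hunter enzyme-fragment luminescence. Levels normalized to DMSO as percent of control; lowest level reached taken as Y value.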

T1 sequence (P48729 whole entry): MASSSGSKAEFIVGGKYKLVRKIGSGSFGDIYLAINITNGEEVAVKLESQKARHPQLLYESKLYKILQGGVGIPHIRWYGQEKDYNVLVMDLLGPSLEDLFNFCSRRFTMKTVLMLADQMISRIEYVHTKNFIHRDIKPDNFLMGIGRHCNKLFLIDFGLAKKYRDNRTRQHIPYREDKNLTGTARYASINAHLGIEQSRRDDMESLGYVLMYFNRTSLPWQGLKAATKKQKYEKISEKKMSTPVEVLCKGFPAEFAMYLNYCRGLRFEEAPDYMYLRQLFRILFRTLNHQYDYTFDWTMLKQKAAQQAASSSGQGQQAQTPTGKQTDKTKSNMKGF
T1 sequence (Q96SW2 whole entry): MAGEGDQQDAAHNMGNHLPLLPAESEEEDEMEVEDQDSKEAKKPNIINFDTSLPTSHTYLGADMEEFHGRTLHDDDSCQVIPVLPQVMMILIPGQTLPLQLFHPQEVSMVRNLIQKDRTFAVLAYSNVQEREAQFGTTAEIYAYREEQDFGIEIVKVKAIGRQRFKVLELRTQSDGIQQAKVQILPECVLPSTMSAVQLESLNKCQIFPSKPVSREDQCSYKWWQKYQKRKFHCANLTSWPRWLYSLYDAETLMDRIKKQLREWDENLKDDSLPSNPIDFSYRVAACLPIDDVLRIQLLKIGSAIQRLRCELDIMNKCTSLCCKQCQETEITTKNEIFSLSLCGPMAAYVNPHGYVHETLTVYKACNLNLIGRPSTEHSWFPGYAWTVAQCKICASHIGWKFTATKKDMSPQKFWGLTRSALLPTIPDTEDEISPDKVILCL
T1 sequence (Q16531 whole entry partner): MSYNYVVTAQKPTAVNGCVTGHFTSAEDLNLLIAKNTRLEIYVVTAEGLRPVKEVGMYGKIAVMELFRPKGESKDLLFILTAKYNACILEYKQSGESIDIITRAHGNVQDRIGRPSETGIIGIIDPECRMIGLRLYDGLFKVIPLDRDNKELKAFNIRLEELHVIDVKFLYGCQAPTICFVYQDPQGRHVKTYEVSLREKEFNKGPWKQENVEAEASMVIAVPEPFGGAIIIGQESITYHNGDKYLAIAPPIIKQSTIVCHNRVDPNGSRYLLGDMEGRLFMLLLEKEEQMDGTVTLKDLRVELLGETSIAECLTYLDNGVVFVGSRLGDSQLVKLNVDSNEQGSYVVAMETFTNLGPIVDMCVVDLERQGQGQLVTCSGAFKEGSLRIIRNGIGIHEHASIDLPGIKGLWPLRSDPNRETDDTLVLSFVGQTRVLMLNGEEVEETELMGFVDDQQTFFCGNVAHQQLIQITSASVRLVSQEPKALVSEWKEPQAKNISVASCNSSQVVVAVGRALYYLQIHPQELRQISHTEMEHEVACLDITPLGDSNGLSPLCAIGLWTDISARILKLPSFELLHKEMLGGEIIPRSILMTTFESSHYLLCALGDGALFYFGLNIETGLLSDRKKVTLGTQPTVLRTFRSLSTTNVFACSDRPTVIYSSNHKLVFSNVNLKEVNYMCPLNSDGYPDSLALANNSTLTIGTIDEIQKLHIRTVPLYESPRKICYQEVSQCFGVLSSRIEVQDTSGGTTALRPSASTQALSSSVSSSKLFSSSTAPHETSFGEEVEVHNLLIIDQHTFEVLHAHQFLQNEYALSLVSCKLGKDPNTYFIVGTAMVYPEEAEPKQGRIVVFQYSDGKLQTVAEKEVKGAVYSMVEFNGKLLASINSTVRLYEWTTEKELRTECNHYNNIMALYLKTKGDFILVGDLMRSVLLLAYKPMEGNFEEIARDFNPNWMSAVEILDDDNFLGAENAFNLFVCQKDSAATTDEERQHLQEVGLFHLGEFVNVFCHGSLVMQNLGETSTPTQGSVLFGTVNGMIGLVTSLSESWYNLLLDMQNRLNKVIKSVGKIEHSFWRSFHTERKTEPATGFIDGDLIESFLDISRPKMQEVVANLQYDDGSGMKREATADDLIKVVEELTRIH

Structure (SMILES)	DC50 [nM]	Y
O=C1CCC(N2Cc3c(ccc(C(=O)N[C@H](c4ncccc4F)C(F)(F)F)c3F)C2=O)C(=O)N1 (stereo partly drawn) [Example 117, 2-(2,6-dioxopiperidin-3-yl)-4-fluoro-1-oxo-N-((R)-2,2,2-trifluoro-1-(3-fluoropyridin-2-yl)ethyl)isoindoline-5-carboxamide]	100 to 500	** (a Y value (shown as**) of 20%<Y≤35%)
CC[C@@H](NC(=O)c1ccc2c(c1)CN(C1CCC(=O)NC1=O)C2=O)c1ccccc1 (stereo partly drawn) [Example 118]	100 to 500	** (a Y value (shown as**) of 20%<Y≤35%)
O=C1CCC(N2Cc3cc(C(=O)N[C@H](c4cc(C(F)(F)F)ccn4)C(F)(F)F)ccc3C2=O)C(=O)N1 (stereo partly drawn) [Example 119, 2-(2,6-dioxopiperidin-3-yl)-1-oxo-N-((R)-2,2,2-trifluoro-1-(4-(trifluoromethyl)pyridin-2-yl)ethyl)isoindoline-5-carboxamide]	< 100	** (a Y value (shown as**) of 20%<Y≤35%)
O=C1CCC(N2Cc3c(ccc(C(=O)N[C@H](c4cccc(OC(F)(F)F)c4)C(F)(F)F)c3F)C2=O)C(=O)N1 (stereo partly drawn) [Example 120, 2-(2,6-dioxopiperidin-3-yl)-4-fluoro-1-oxo-N-((R)-2,2,2-trifluoro-1-(3-(trifluoromethoxy)phenyl)ethyl)isoindoline-5-carboxamide]	100 to 500	** (a Y value (shown as**) of 20%<Y≤35%)
O=C1CCC(N2Cc3cc(C(=O)N[C@H](c4cccc(C(F)(F)F)n4)C(F)(F)F)ccc3C2=O)C(=O)N1 (stereo partly drawn) [Example 125, 2-(2,6-dioxopiperidin-3-yl)-1-oxo-N-((R)-2,2,2-trifluoro-1-(6-(trifluoromethyl)pyridin-2-yl)ethyl)isoindoline-5-carboxamide]	< 100	* (a Y value (shown as *) of 0<Y≤20%)
O=C1CCC(N2Cc3cc(C(=O)N[C@H](c4ccc(C(F)(F)F)cn4)C(F)(F)F)ccc3C2=O)C(=O)N1 (stereo partly drawn) [Example 126, 2-(2,6-dioxopiperidin-3-yl)-1-oxo-N-((R)-2,2,2-trifluoro-1-(5-(trifluoromethyl)pyridin-2-yl)ethyl)isoindoline-5-carboxamide]	< 100	** (a Y value (shown as**) of 20%<Y≤35%)
O=C1CCC(N2Cc3cc(C(=O)N[C@H](c4ncc(Cl)cc4F)C(F)(F)F)ccc3C2=O)C(=O)N1 (stereo partly drawn) [Example 127, N-((R)-1-(5-chloro-3-fluoropyridin-2-yl)-2,2,2-trifluoroethyl)-2-(2,6-dioxopiperidin-3-yl)-1-oxoisoindoline-5-carboxamide]	< 100	* (a Y value (shown as *) of 0<Y≤20%)
O=C1CCC(N2Cc3c(ccc(C(=O)N[C@@H](CC(F)(F)F)c4ccc(Cl)cc4)c3F)C2=O)C(=O)N1 (stereo partly drawn) [Example 129, N-((S)-1-(4-chlorophenyl)-3,3,3-trifluoropropyl)-2-(2,6-dioxopiperidin-3-yl)-4-fluoro-1-oxoisoindoline-5-carboxamide]	500 to 1000	*** (a Y value (shown as***) of 35%<Y<50%)
C[C@@H](NC(=O)c1ccc2c(c1)CN(C1CCC(=O)NC1=O)C2=O)c1ccccc1C#N (stereo partly drawn) [Example 131, N-((R)-1-(2-cyanophenyl)ethyl)-2-(2,6-dioxopiperidin-3-yl)-1-oxoisoindoline-5-carboxamide]	< 100	** (a Y value (shown as**) of 20%<Y≤35%)
C[C@@H](NC(=O)c1ccc2c(c1)CN(C1CCC(=O)NC1=O)C2=O)C1CCCC1 (stereo partly drawn) [Example 132]	100 to 500	** (a Y value (shown as**) of 20%<Y≤35%)
O=C1CCC(N2Cc3cc(C(=O)N[C@H](c4ncc(F)cc4F)C(F)(F)F)ccc3C2=O)C(=O)N1 (stereo partly drawn) [Example 133, N-((R)-1-(3,5-difluoropyridin-2-yl)-2,2,2-trifluoroethyl)-2-(2,6-dioxopiperidin-3-yl)-1-oxoisoindoline-5-carboxamide]	< 100	* (a Y value (shown as *) of 0<Y≤20%)
O=C1CCC(N2Cc3c(ccc(C(=O)N[C@H](c4ccc(OC(F)(F)F)cc4)C(F)(F)F)c3F)C2=O)C(=O)N1 (stereo partly drawn) [Example 135, 2-(2,6-dioxopiperidin-3-yl)-4-fluoro-1-oxo-N-((R)-2,2,2-trifluoro-1-(4-(trifluoromethoxy)phenyl)ethyl)isoindoline-5-carboxamide]	100 to 500	** (a Y value (shown as**) of 20%<Y≤35%)
O=C1CCC(N2Cc3c(ccc(C(=O)N[C@H](C4CCCC4)C(F)(F)F)c3F)C2=O)C(=O)N1 (stereo partly drawn) [Example 137, N-((R)-1-cyclopentyl-2,2,2-trifluoroethyl)-2-(2,6-dioxopiperidin-3-yl)-4-fluoro-1-oxoisoindoline-5-carboxamide]	< 100	* (a Y value (shown as *) of 0<Y≤20%)
O=C1CCC(N2Cc3cc(C(=O)N[C@H](c4cccc(CN5CCOCC5)c4)C(F)(F)F)ccc3C2=O)C(=O)N1 (stereo partly drawn) [Example 140, 2-(2,6-dioxopiperidin-3-yl)-1-oxo-N-((R)-2,2,2-trifluoro-1-(3-(morpholinomethyl)phenyl)ethyl)isoindoline-5-carboxamide]	< 100	* (a Y value (shown as *) of 0<Y≤20%)
CN(C)Cc1ccc([C@@H](NC(=O)c2ccc3c(c2)CN(C2CCC(=O)NC2=O)C3=O)C(F)(F)F)cc1 (stereo partly drawn) [Example 141, N-((R)-1-(4-((dimethylamino)methyl)phenyl)-2,2,2-trifluoroethyl)-2-(2,6-dioxopiperidin-3-yl)-1-oxoisoindoline-5-carboxamide]	< 100	* (a Y value (shown as *) of 0<Y≤20%)
O=C1CCC(N2Cc3cc(C(=O)N[C@H](c4ccc(CN5CCOCC5)cc4)C(F)(F)F)ccc3C2=O)C(=O)N1 (stereo partly drawn) [Example 142, 2-(2,6-dioxopiperidin-3-yl)-1-oxo-N-((R)-2,2,2-trifluoro-1-(4-(morpholinomethyl)phenyl)ethyl)isoindoline-5-carboxamide]	< 100	* (a Y value (shown as *) of 0<Y≤20%)
O=C1CCC(N2Cc3cc(C(=O)N[C@H](C4CCN(CC(F)(F)F)CC4)C(F)(F)F)ccc3C2=O)C(=O)N1 (stereo partly drawn) [Example 143, 2-(2,6-dioxopiperidin-3-yl)-1-oxo-N-((R)-2,2,2-trifluoro-1-(1-(2,2,2-trifluoroethyl)piperidin-4-yl)ethyl)isoindoline-5-carboxamide]	100 to 500	* (a Y value (shown as *) of 0<Y≤20%)

Next, values leading:

DC50 [nM]	Y	Structure (SMILES)
< 100	* (a Y value (shown as *) of 0<Y≤20%)	O=C1CCC(N2Cc3c(ccc(C(=O)N[C@H](C4CCCCC4)C(F)(F)F)c3F)C2=O)C(=O)N1 (stereo partly drawn) [Example 121, N-((R)-1-cyclohexyl-2,2,2-trifluoroethyl)-2-(2,6-dioxopiperidin-3-yl)-4-fluoro-1-oxoisoindoline-5-carboxamide]
< 100	* (a Y value (shown as *) of 0<Y≤20%)	O=C1CCC(N2Cc3cc(C(=O)N[C@H](c4cccc(OC5CC5)c4)C(F)(F)F)ccc3C2=O)C(=O)N1 (stereo partly drawn) [Example 122, N-((R)-1-(3-cyclopropoxyphenyl)-2,2,2-trifluoroethyl)-2-(2,6-dioxopiperidin-3-yl)-1-oxoisoindoline-5-carboxamide]
100 to 500	** (a Y value (shown as**) of 20%<Y≤35%)	O=C1CCC(N2Cc3cc(C(=O)N[C@@H](CC(F)(F)F)c4ccc(F)cc4)ccc3C2=O)C(=O)N1 (stereo partly drawn) [Example 123, 2-(2,6-dioxopiperidin-3-yl)-1-oxo-N-((S)-3,3,3-trifluoro-1-(4-fluorophenyl)propyl)isoindoline-5-carboxamide]
< 100	* (a Y value (shown as *) of 0<Y≤20%)	CC(C)[C@@H](NC(=O)c1ccc2c(c1)CN(C1CCC(=O)NC1=O)C2=O)c1ccccc1 (stereo partly drawn) [Example 124, 2-(2,6-dioxopiperidin-3-yl)-N-((R)-2-methyl-1-phenylpropyl)-1-oxoisoindoline-5-carboxamide]
< 100	* (a Y value (shown as *) of 0<Y≤20%)	Cc1ccccc1[C@@H](NC(=O)c1ccc2c(c1F)CN(C1CCC(=O)NC1=O)C2=O)C(F)(F)F (stereo partly drawn) [Example 128, 2-(2,6-dioxopiperidin-3-yl)-4-fluoro-1-oxo-N-((R)-2,2,2-trifluoro-1-o-tolylethyl)isoindoline-5-carboxamide]
100 to 500	** (a Y value (shown as**) of 20%<Y≤35%)	O=C1CCC(N2Cc3c(ccc(C(=O)N[C@H](c4ccc(OC5CC5)cc4)C(F)(F)F)c3F)C2=O)C(=O)N1 (stereo partly drawn) [Example 130, N-((R)-1-(4-cyclopropoxyphenyl)-2,2,2-trifluoroethyl)-2-(2,6-dioxopiperidin-3-yl)-4-fluoro-1-oxoisoindoline-5-carboxamide]
< 100	** (a Y value (shown as**) of 20%<Y≤35%)	Cc1cccc([C@@H](NC(=O)c2ccc3c(c2F)CN(C2CCC(=O)NC2=O)C3=O)C(F)(F)F)c1 (stereo partly drawn) [Example 134, 2-(2,6-dioxopiperidin-3-yl)-4-fluoro-1-oxo-N-((R)-2,2,2-trifluoro-1-m-tolylethyl)isoindoline-5-carboxamide]
< 100	* (a Y value (shown as *) of 0<Y≤20%)	O=C1CCC(N2Cc3c(ccc(C(=O)N[C@H](c4ccccc4OC(F)(F)F)C(F)(F)F)c3F)C2=O)C(=O)N1 (stereo partly drawn) [Example 136, 2-(2,6-dioxopiperidin-3-yl)-4-fluoro-1-oxo-N-((R)-2,2,2-trifluoro-1-(2-(trifluoromethoxy)phenyl)ethyl)isoindoline-5-carboxamide]
< 100	* (a Y value (shown as *) of 0<Y≤20%)	O=C1CCC(N2Cc3c(ccc(C(=O)N[C@@H](C(F)(F)F)C45CC(C4)C5)c3F)C2=O)C(=O)N1 (stereo partly drawn) [Example 138, N-((R)-1-(bicyclo[1.1.1]pentan-1-yl)-2,2,2-trifluoroethyl)-2-(2,6-dioxopiperidin-3-yl)-4-fluoro-1-oxoisoindoline-5-carboxamide]
< 100	* (a Y value (shown as *) of 0<Y≤20%)	O=C1CCC(N2Cc3c(ccc(C(=O)N[C@H](c4ncccc4Cl)C(F)(F)F)c3F)C2=O)C(=O)N1 (stereo partly drawn) [Example 139, N-((R)-1-(3-chloropyridin-2-yl)-2,2,2-trifluoroethyl)-2-(2,6-dioxopiperidin-3-yl)-4-fluoro-1-oxoisoindoline-5-carboxamide]
